Test results taken from ChEMBL document CHEMBL1141773, “SERCA-inhibiting activity of C-19 terpenolides from Thapsia garganica and their possible biogenesis” (J Nat Prod, 2005).

Key:
[1] = Inhibition of SERCA in sea urchin eggs assessed as Ca2+ leak rate at 10 uM relative to thapsigargin; set-up: species or system Lytechinus pictus
Lytechinus pictus [2] = assay: Inhibition of SERCA in sea urchin eggs assessed as Ca2+ leak rate at 10 uM
Lytechinus pictus [3] = assay: Inhibition of SERCA in sea urchin eggs assessed as Ca2+ leak rate; set-up: scale not given: the % may be the effect or the level left

Activity (Lytechinus pictus [3]) [%]	SMILES	Ki [1] [pM]	Activity (Lytechinus pictus [2]) [RFU/min]
65.4	C=C[C@]1(C)CC[C@H]2C(C)(C)[C@H]3C=C4C=C(OC)OC(=O)[C@@H]1[C@@]42OC3=O		
64.2	C=C[C@@]1(C)CC[C@H]2[C@](C)(COC(C)=O)[C@H]3C=C4C=C(OC)OC(=O)[C@@H]1[C@@]42OC3=O		

Second part, the molecule before the results:

SMILES	Activity (Lytechinus pictus [3]) [%]	Ki [1] [pM]	Activity (Lytechinus pictus [2]) [RFU/min]
C/C=C(/C)C(=O)O[C@H]1C(C)=C2[C@H]([C@@H]1OC(=O)CCCCCCC)[C@@](C)(OC(C)=O)C[C@H](OC(=O)CCC)[C@@]1(O)[C@H]2OC(=O)[C@@]1(C)O [THAPSIGARGIN]		2	81
C=C[C@@]1(C)CC[C@H]2C(C)(C)[C@H]3C=C4C=C(OC)OC(=O)[C@@H]1[C@@]42OC3=O	65.4		
C=C[C@@]1(C)CC[C@H]2[C@](C)(C(=O)OC)[C@H]3C=C4C=C(OC)OC(=O)[C@@H]1[C@@]42OC3=O	61.4		
